Here are results for two compounds from US9801943B2, “Method for in vivo targeting of nanoparticles via bioorthogonal copper-free click chemistry” (KOREA INSTITUTE OF SCIENCE AND TECHNOLOGY, priority 2012, dated 2017).

Experiment [1] relates to A549 tumors. Briefly: In vivo and ex vivo NIRF imaging of tumor targeting in A549 tumor-bearing mice. The note with it: i.v., same fluorescence intensity as DBCO-lipo. The procedure:
All experiments using live animals were performed in compliance with the relevant laws and the institutional guidelines of the Korea Institute of Science and Technology (KIST) and under the approval by the institutional committee. For in vivo and ex vivo experiments, 1.0×10^7 A549 tumor cells were administered to 5-week-old male athymic nude mice (20 g, Institute of Medical Science, Tokyo, Japan) on both flanks by subcutaneous injection. […] DBCO-lipo (10 mg/kg), DBCO-free control liposome (10 mg/kg) or DBCO-fluorescent dye conjugate of the same fluorescence intensity as DBCO-lipo were injected into the tail veins of two A549 tumor-bearing mice. […] Near-infrared (NIR) fluorescence emission at 700 nm was collected and detected with a fast photomultiplier tube (Hamamatsu, Japan) and a time-correlated single photon counting system (Becker and Hickl GmbH, Berlin, Germany). The active tumor targeting characteristics of DBCO-lipo were evaluated by capturing 20 z-section images at 1.0 mm spacing using the Analysis Workstation software (ART Advanced Research Technologies Inc., Montreal, Canada). […] NIR fluorescence images were obtained using a 12-bit CCD (Kodak Image Station 4000 MM, New Haven, Conn., USA) equipped with a Cy5.5 emission filter (600-700 nm; Omega Optical). […] All numerical values were expressed as mean±standard deviation for the three animal groups. […]

Experiment [2] deals with A549 tumors. Put plainly: Generation of azide groups in tumor tissues (western blot, immunohistochemical staining). The class given is in vivo, mice. The note with it: Ac4ManNAz 0.5, 5, 50 mM intratumoral once daily for 3 days; tumors dissected on day 4. The procedure:
Preparation of tumor-bearing mouse models and administration of Ac4ManNAz were performed according to the same method as described above. 24 hours after the injection of Ac4ManNAz (on day 4), the tumors were dissected, transferred into 1 mL of lysis buffer (1% SDS, 100 mM Tris.HCl, pH 7.4) containing protease inhibitor (Complete, EDTA-free), and homogenized using a homogenizer (WiseMix HG-15D, Daihan Scientific, Seoul, Korea). The lysate was incubated at 4° C. for 30 minutes and insoluble debris was removed by centrifuging at 3,000×g for 10 minutes. Protein concentration was measured using the BCA protein assay kit. Staudinger reaction with phosphine-FLAG, SDS-PAGE and western blot analysis were conducted as described above.
The dissected tumor tissues were retrieved and fixed in a 4% (v/v) buffered formalin solution, dehydrated with graded ethanol series, and embedded in paraffin. The paraffin tissues were sliced into 4-μm wide slices and immunohistochemical staining was performed using Histostain®-Plus Brod Spectrum (Invitrogen, CA, USA) in combination with phosphine-FLAG and monoclonal anti-FLAG-HRP antibodies according to the manufacturer's instructions. The paraffin slices were dehydrated, mounted using the Permount SP15-100 Toluene Solution (Fisher Scientific, NJ, USA) mounting medium, and observed with an optical microscope (BX51, Olympus, Tokyo, Japan). […]

In experiment [3] the test system is A549 cells. Put plainly: Generation of azide groups on A549 cells (Coomassie staining, western blot with phosphine-FLAG). The class given is cell-based, human. The note with it: Ac4ManNAz 0.5, 5, 50 μM, 3 days. The procedure: A549 cells in 10 mL of media with no sugar or different concentrations of Ac4ManNAz (final concentrations of 0.5 μM, 5 μM and 50 μM) were seeded onto 100×20 mm polystyrene tissue culture plates at a density of 1.5×10^6 cells per plate and incubated for 3 days. The cells were washed twice with PBS (pH 7.4) and harvested from the plates with a cell scraper. The cells were pelletized by centrifuging at 3,000×g for 5 minutes and the supernatant was discarded. The cell pellets were resuspended in 500 μL of lysis buffer (1% SDS, 100 mM Tris.HCl, pH 7.4) containing protease inhibitor (Complete, EDTA-free) and lysed at 4° C. using a probe-type sonicator. The sonicated lysates were incubated at 4° C. for 30 minutes to further solubilize proteins. Insoluble debris was removed by centrifuging at 3,000×g for 10 minutes. Total soluble protein concentration was determined by the bicinchroninic acid (BCA) protein assay (Pierce, Ill., USA) to be 5 mg/mL. 20 μL of the lysate (5 mg/mL protein) was incubated with 2 μL of phosphine-FLAG (5 mM in PBS, pH 7.4) (Sigma, St. Louis, Mo., USA) at 37° C. for 6 hours. SDS-PAGE loading buffer was added to each sample. Then, aliquots were loaded onto 10% SDS-PAGE after heating at 95° C. […]

With dibenzylcyclooctyne-SETA650 [DBCO-SETA], in experiment [1], the “NIRF image brightness in mice” value is listed as “relatively dim images”. For `CC(=O)OC[C@H]1OC(OC(C)=O)[C@@H](NC(=O)CN=[N+]=[N-])[C@@H](OC(C)=O)[C@@H]1OC(C)=O` (stereo partly drawn) [Ac4ManNAz, Tetraacetylated N-azidoacetyl-D-mannosamine], the “amount of azide groups in tumor tissues” value in experiment [2] is “increased in a dose-dependent manner”. Besides, the “generation of azide groups on cell surface” value in experiment [3] was “modified azide groups could be generated on the surface of the A549 cells”.
